24 molecules from patent publication US11377469B2, “CD73 inhibitors” (ORIC Pharmaceuticals, Inc., priority 2017, dated 2022) can be followed below.

Molecules are shown by their SMILES. Bounds are passed on as bounds.

For the assay, the target named is CD73 (Homo sapiens (Human), UniProt P21589). Briefly: Biochemical Assay (CD73 inhibition, AMP hydrolysis, Malachite Green readout). The following applies: CD73 0.3208 nM, AMP 15 μM, Tris-HCl pH 7.4, Malachite Green absorbance.
CD73, sequence (P21589 27-574): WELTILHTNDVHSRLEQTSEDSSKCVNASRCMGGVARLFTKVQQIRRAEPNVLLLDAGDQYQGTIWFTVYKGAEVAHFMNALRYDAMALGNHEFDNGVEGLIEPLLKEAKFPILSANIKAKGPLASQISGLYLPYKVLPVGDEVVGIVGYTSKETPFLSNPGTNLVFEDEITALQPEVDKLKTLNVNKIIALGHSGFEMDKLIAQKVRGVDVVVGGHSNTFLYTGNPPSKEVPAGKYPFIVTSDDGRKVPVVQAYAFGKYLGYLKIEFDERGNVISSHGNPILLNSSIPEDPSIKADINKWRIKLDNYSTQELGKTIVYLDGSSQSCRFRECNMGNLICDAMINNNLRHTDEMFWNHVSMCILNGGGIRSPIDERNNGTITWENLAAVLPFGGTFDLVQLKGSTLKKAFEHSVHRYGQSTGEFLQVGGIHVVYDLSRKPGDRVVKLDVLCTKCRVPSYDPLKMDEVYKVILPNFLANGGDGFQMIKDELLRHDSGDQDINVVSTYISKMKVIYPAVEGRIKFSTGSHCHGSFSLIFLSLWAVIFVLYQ
As to `O=P(O)(O)COC[C@H]1O[C@@H](n2ncc3c(NCc4cccc(Cl)c4)nc(Cl)nc32)[C@H](O)[C@@H]1O` [Example 27, ((((2R,3S,4R,5R)-5-(6-chloro-4-((3-chlorobenzyl)amino)-1H-pyrazolo[3,4-d]pyrimidin-1-yl)-3,4-dihydroxytetrahydrofuran-2-yl)methoxy)methyl)phosphonic acid], the IC50 is at most 500 nM.

For `O=P(O)(O)COC[C@H]1O[C@@H](n2ncc3c(NC[C@@H]4CCOC4)nc(Cl)nc32)[C@H](O)[C@@H]1O` [Example 71, ((((2R,3S,4R,5R)-5-(6-chloro-4-((((S)-tetrahydrofuran-3-yl)methyl)amino)-1H-pyrazolo[3,4-d]pyrimidin-1-yl)-3,4-dihydroxytetrahydrofuran-2-yl)methoxy)methyl)phosphonic acid], the IC50 was at most 500 nM. Then `O=P(O)(O)COC[C@H]1O[C@@H](n2nnc3c(NC4CCCC4)nc(Cl)nc32)[C@H](O)[C@@H]1O` [Example 95, ((((2R,3S,4R,5R)-5-(5-chloro-7-(cyclopentylamino)-3H-[1,2,3]triazolo[4,5-d]pyrimidin-3-yl)-3,4-dihydroxytetrahydrofuran-2-yl)methoxy)methyl)phosphonic acid], with at most 500 nM. Molecule `CN(Cc1ccccc1)c1nc(Cl)nc2c1cnn2[C@@H]1O[C@H](COCCP(=O)(O)O)[C@@H](O)[C@H]1O` [Example 5, (2-(((2R,3S,4R,5R)-5-(4-(Benzyl(methyl)amino)-6-chloro-1H-pyrazolo[3,4-d]pyrimidin-1-yl)-3,4-dihydroxytetrahydrofuran-2-yl)methoxy)ethyl)phosphonic acid] showed an IC50 above 1000 nM. With `O=P(O)(O)CSC[C@H]1O[C@@H](n2ncc3c(NCc4ccccc4Cl)nc(Cl)nc32)[C@H](O)[C@@H]1O` [Example 13, (((((2S,3S,4R,5R)-5-(6-Chloro-4-((2-chlorobenzyl)amino)-1H-pyrazolo[3,4-d]pyrimidin-1-yl)-3,4-dihydroxytetrahydrofuran-2-yl)methyl)thio)methyl)phosphonic acid] the figure was at most 500 nM. `CN(c1nc(Cl)nc2c1cnn2[C@@H]1O[C@H](COCP(=O)(O)O)[C@@H](O)[C@H]1O)C1CCCC1` [Example 53, ((((2R,3S,4R,5R)-5-(6-chloro-4-(cyclopentyl(methyl)amino)-1H-pyrazolo[3,4-d]pyrimidin-1-yl)-3,4-dihydroxytetrahydrofuran-2-yl)methoxy)methyl)phosphonic acid]: the IC50 is at most 500 nM. With `O=P(O)(O)COC[C@H]1O[C@@H](n2ncc3c(NCc4cccc(C(F)(F)F)c4)nc(Cl)nc32)[C@H](O)[C@@H]1O` [Example 32, ((((2R,3S,4R,5R)-5-(6-chloro-4-((3-(trifluoromethyl)benzyl)amino)-1H-pyrazolo[3,4-d]pyrimidin-1-yl)-3,4-dihydroxytetrahydrofuran-2-yl)methoxy)methyl)phosphonic acid] the figure was at most 500 nM; with `O=P(O)(O)COC[C@H]1O[C@@H](n2nnc3c(N[C@H]4CCc5ccccc54)nc(Cl)nc32)[C@H](O)[C@@H]1O` [Example 12, ((((2R,3S,4R,5R)-5-(5-chloro-7-(((S)-2,3-dihydro-1H-inden-1-yl)amino)-3H-[1,2,3]triazolo[4,5-d]pyrimidin-3-yl)-3,4-dihydroxytetrahydrofuran-2-yl)methoxy)methyl)phosphonic acid], at most 500 nM. Then `O=P(O)(O)CS(=O)(=O)C[C@H]1O[C@@H](n2ncc3c(NCC4CCC4)nc(Cl)nc32)[C@H](O)[C@@H]1O` [Example 111, (((((2S,3S,4R,5R)-5-(6-chloro-4-((cyclobutylmethyl)amino)-1H-pyrazolo[3,4-d]pyrimidin-1-yl)-3,4-dihydroxytetrahydrofuran-2-yl)methyl)sulfonyl)methyl)phosphonic acid], with at most 500 nM. Then `CN(Cc1ccccc1Cl)c1nc(Cl)nc2c1nnn2[C@@H]1O[C@H](COCP(=O)(O)O)[C@@H](O)[C@H]1O` [Example 59, ((((2R,3S,4R,5R)-5-(5-chloro-7-((2-chlorobenzyl)(methyl)amino)-3H-[1,2,3]triazolo[4,5-d]pyrimidin-3-yl)-3,4-dihydroxytetrahydrofuran-2-yl)methoxy)methyl)phosphonic acid], with at most 500 nM. Turning to `O=P(O)(O)CS(=O)(=O)C[C@H]1O[C@@H](n2ncc3c(NCc4cccc(Cl)c4)nc(Cl)nc32)[C@H](O)[C@@H]1O` [Example 61, (((((2S,3S,4R,5R)-5-(6-chloro-4-((3-chlorobenzyl)amino)-1H-pyrazolo[3,4-d]pyrimidin-1-yl)-3,4-dihydroxytetrahydrofuran-2-yl)methyl)sulfonyl)methyl)phosphonic acid], the IC50 was at most 500 nM. `C[C@H](Nc1nc(Cl)nc2c1cnn2[C@@H]1O[C@H](CS(=O)(=O)CP(=O)(O)O)[C@@H](O)[C@H]1O)c1ccc(F)cc1` [Example 116, (((((2S,3S,4R,5R)-5-(6-chloro-4-(((S)-1-(4-fluorophenyl)ethyl)amino)-1H-pyrazolo[3,4-d]pyrimidin-1-yl)-3,4-dihydroxytetrahydrofuran-2-yl)methyl)sulfonyl)methyl)phosphonic acid] returned an IC50 of at most 500 nM. With `C[C@H](Nc1nc(Cl)nc2c1nnn2[C@@H]1O[C@H](CS(=O)(=O)CP(=O)(O)O)[C@@H](O)[C@H]1O)c1ccc(F)cc1` [Example 114] the figure was at most 500 nM; with `O=P(O)(O)COC[C@H]1O[C@@H](n2ncc3c(NC[C@H]4CCOC4)nc(Cl)nc32)[C@H](O)[C@@H]1O` [Example 45, ((((2R,3S,4R,5R)-5-(6-chloro-4-((((R)-tetrahydrofuran-3-yl)methyl)amino)-1H-pyrazolo[3,4-d]pyrimidin-1-yl)-3,4-dihydroxytetrahydrofuran-2-yl)methoxy)methyl)phosphonic acid], at most 500 nM; with `N#Cc1cccc(CNc2nc(Cl)nc3c2cnn3[C@@H]2O[C@H](COCP(=O)(O)O)[C@@H](O)[C@H]2O)c1` [Example 46, ((((2R,3S,4R,5R)-5-(6-chloro-4-((3-cyanobenzyl)amino)-1H-pyrazolo[3,4-d]pyrimidin-1-yl)-3,4-dihydroxytetrahydrofuran-2-yl)methoxy)methyl)phosphonic acid], at most 500 nM. With `C[C@H]1CCC[C@H]1Nc1nc(Cl)nc2c1cnn2[C@@H]1O[C@H](CS(=O)(=O)CP(=O)(O)O)[C@@H](O)[C@H]1O` [Example 134, (((((2S,3S,4R,5R)-5-(6-chloro-4-(((1R,2S)-2-methylcyclopentyl)amino)-1H-pyrazolo[3,4-d]pyrimidin-1-yl)-3,4-dihydroxytetrahydrofuran-2-yl)methyl)sulfonyl)methyl)phosphonic acid] the figure was at most 500 nM; with `O=P(O)(O)COC[C@H]1O[C@@H](n2ncc3c(NCc4ccccc4Cl)nc(Cl)nc32)[C@H](O)[C@@H]1O` [Example 10, ((((2R,3S,4R,5R)-5-(6-chloro-4-((2-chlorobenzyl)amino)-1H-pyrazolo[3,4-d]pyrimidin-1-yl)-3,4-dihydroxytetrahydrofuran-2-yl)methoxy)methyl)phosphonic acid], at most 500 nM. With `O=P(O)(O)CS(=O)(=O)C[C@H]1O[C@@H](n2nnc3c(NC4CCCC4)nc(Cl)nc32)[C@H](O)[C@@H]1O` [Example 108, (((((2S,3S,4R,5R)-5-(5-chloro-7-(cyclopentylamino)-3H-[1,2,3]triazolo[4,5-d]pyrimidin-3-yl)-3,4-dihydroxytetrahydrofuran-2-yl)methyl)sulfonyl)methyl)phosphonic acid] the figure was at most 500 nM; with `CC(C)CNc1nc(NCc2cccc(Cl)c2)c2cnn([C@@H]3O[C@H](COCP(=O)(O)O)[C@@H](O)[C@H]3O)c2n1` [Example 67, ((((2R,3S,4R,5R)-5-(4-((3-chlorobenzyl)amino)-6-(isobutylamino)-1H-pyrazolo[3,4-d]pyrimidin-1-yl)-3,4-dihydroxytetrahydrofuran-2-yl)methoxy)methyl)phosphonic acid], above 1000 nM; with `C[C@H](Nc1nc(Cl)nc2c1cnn2[C@@H]1O[C@H](COCP(=O)(O)O)[C@@H](O)[C@H]1O)c1cccc(Cl)c1` [Example 34, ((((2R,3S,4R,5R)-5-(6-chloro-4-(((S)-1-(3-chlorophenyl)ethyl)amino)-1H-pyrazolo[3,4-d]pyrimidin-1-yl)-3,4-dihydroxytetrahydrofuran-2-yl)methoxy)methyl)phosphonic acid], at most 500 nM. Molecule `CN(Cc1ccccc1Cl)c1nc(Cl)nc2c1cnn2[C@@H]1O[C@H](COCP(=O)(O)O)[C@@H](O)[C@H]1O` [Example 64, ((((2R,3S,4R,5R)-5-(6-chloro-4-((2-chlorobenzyl)(methyl)amino)-1H-pyrazolo[3,4-d]pyrimidin-1-yl)-3,4-dihydroxytetrahydrofuran-2-yl)methoxy)methyl)phosphonic acid] returned an IC50 of 500 to 1000 nM. In turn, `O=P(O)(O)CS(=O)(=O)C[C@H]1O[C@@H](n2nnc3c(N[C@H]4CCc5ccccc54)nc(Cl)nc32)[C@H](O)[C@@H]1O` [Example 130, (((((2S,3S,4R,5R)-5-(5-chloro-7-(((S)-2,3-dihydro-1H-inden-1-yl)amino)-3H-[1,2,3]triazolo[4,5-d]pyrimidin-3-yl)-3,4-dihydroxytetrahydrofuran-2-yl)methyl)sulfonyl)methyl)phosphonic acid] displayed an IC50 of at most 500 nM. For the molecule `C[C@H](Nc1nc(Cl)nc2c1cnn2[C@@H]1O[C@H](CS(=O)(=O)CP(=O)(O)O)[C@@H](O)[C@H]1O)c1ccccc1Cl` [Example 129, (((((2S,3S,4R,5R)-5-(6-chloro-4-(((S)-1-(2-chlorophenyl)ethyl)amino)-1H-pyrazolo[3,4-d]pyrimidin-1-yl)-3,4-dihydroxytetrahydrofuran-2-yl)methyl)sulfonyl)methyl)phosphonic acid], the 50% inhibitory concentration (IC50) was at most 500 nM. Then `CN(CC1CC1)c1nc(Cl)nc2c1cnn2[C@@H]1O[C@H](CS(=O)(=O)CP(=O)(O)O)[C@@H](O)[C@H]1O` [Example 84, (((((2S,3S,4R,5R)-5-(6-chloro-4-((cyclopropylmethyl)(methyl)amino)-1H-pyrazolo[3,4-d]pyrimidin-1-yl)-3,4-dihydroxytetrahydrofuran-2-yl)methyl)sulfonyl)methyl)phosphonic acid], with at most 500 nM.
